Like-named read-outs stand apart in the source and are kept apart here.
Experiments:
Calu-6 = experiment: IC50 assay, NSCLC cell lines (Cell Titer Glo, total ATP); format: cell-based; settings: Homo sapiens
Description: (§1) Cells were plated at ˜15% confluence in a media comprising 5% concentration of fetal bovine serum supplemented with RPMI, which included 2 mM L-Glutamine in a 96 well dish. […] Following three days of incubation in a 5% CO2 incubator, the total ATP in each well was quantified using Cell Titer Glo (Promega). […] The solid lines represent the medians.

H1395 = experiment: as above; format: cell-based; settings: Homo sapiens
Description: as §1

H1568 = experiment: as above; format: cell-based; settings: Homo sapiens
Description: as §1

H1770 = experiment: as above; format: cell-based; settings: Homo sapiens
Description: as §1

H1975 = experiment: as above; format: cell-based; settings: Homo sapiens
Description: as §1

H2106 = experiment: as above; format: cell-based; settings: Homo sapiens
Description: as §1

H2126 = experiment: as above; format: cell-based; settings: Homo sapiens
Description: as §1

H2444 = experiment: as above; format: cell-based; settings: Homo sapiens
Description: as §1

H292 = experiment: as above; format: cell-based; settings: Homo sapiens
Description: as §1

H522 = experiment: as above; format: cell-based; settings: Homo sapiens
Description: as §1

H838 = experiment: as above; format: cell-based; settings: Homo sapiens
Description: as §1

HCC15 = experiment: as above; format: cell-based; settings: Homo sapiens
Description: as §1

HCC2018 = experiment: as above; format: cell-based; settings: Homo sapiens
Description: as §1

HCC2814 = experiment: as above; format: cell-based; settings: Homo sapiens
Description: as §1

HCC366 = experiment: as above; format: cell-based; settings: Homo sapiens
Description: as §1

HCC4006 = experiment: as above; format: cell-based; settings: Homo sapiens
Description: as §1

HOP62 = experiment: as above; format: cell-based; settings: Homo sapiens
Description: as §1

WI38 = experiment: as above; format: cell-based; settings: Homo sapiens
Description: as §1

RBM39 = molecular target: T1, RBM39 (Homo sapiens, UniProt Q14498+Q66K64); experiment: RBM39 degradation in cells (western blotting); format: cell-based; settings: HCT-116 cells; dose dependent, evident as early as two hours after treatment
T1 construct: triggers the degradation of RBM39 in parental HCT-116 cells; endogenous in cells; host or cells: HCT-116
Description: (§2) Proteins were resolved on SDS-PAGE and transferred to 0.5 μm nitrocellulose membranes. Membranes were blocked in 5% milk TBST for 30 min, and then anti-RBM39 antibodies (HPA001591, Sigma-Aldrich) were added in 5% milk (1:5000) and incubated on a shaker overnight at 4° C. After three 5 min washes with TBST, membranes were incubated with HRP-conjugated goat anti-rabbit secondary antibody (Bio-Rad) for 2 hr at room temperature. After three 5 min washes with TBST, membranes were developed with ECL (enhanced chemiluminescence) substrates.

[1] = system: RBM39 with indisulam-resistant mutations; experiment: RBM39 degradation in resistant cells (western blotting); format: cell-based, human; settings: resistant cells harboring indisulam-resistant mutations
Description: as §2

RBM39-AcGFP = molecular target: T2, RBM39-AcGFP (Homo sapiens, UniProt Q14498+Q66K64); experiment: CRISPR inactivation of DDB1, DDA1, DCAF15; RBM39-AcGFP by flow cytometry; format: cell-based; settings: H1155 RBM39-AcGFP cells
T2 construct: Homology directed repair facilitates tagging of endogenous RBM39 by AID, 3xFLAG, AcGFP, or Nanoluciferase; endogenous in cells; host or cells: H1155 RBM39-AcGFP knock-in cells
Description: Two independent guide RNAs targeting DDB1, DDA1, DCAF15 were cloned into PX459. 0.2 million H1155 RBM39-AcGFP cells were transfected with PX459 sgRNA constructs and selected with 2 μg/ml puromycin to enrich for transfected cells. […] Cells were then trypsinized and the expression of RBM39-AGFP was quantified with flow cytometry. H1155 cells transfected with DCAF15 guide RNA were sparsely plated on 10 cm^2 plates and clones were isolated. Genomic DNA sequence flanking the cut site were amplified and sequenced to identify DCAF15−/− clones.

[2] = read-out: Indisulam IC50 (log 10) (converted), U2AF1 WT
[3] = read-out: Indisulam IC50, U2AF1 WT

NS(=O)(=O)c1ccc(S(=O)(=O)Nc2cccc3c(Cl)c[nH]c23)cc1 [Indisulam, indisulam]
IC50 (Calu-6; [2]): 1.51 µM | IC50 (Calu-6; [3]): 1.51 µM | IC50 (H1395; NCI-H1395, read-out: Indisulam IC50 (log 10) (converted), U2AF1 WT): 10.9 µM | IC50 (H1395; NCI-H1395, read-out: Indisulam IC50, U2AF1 WT): 10.9 µM | IC50 (H1568; NCI-H1568, read-out: Indisulam IC50 (log 10) (converted), U2AF1 WT): 265 µM | IC50 (H1568; NCI-H1568, read-out: Indisulam IC50, U2AF1 WT): 265 µM | IC50 (H1770; NCI-H1770, read-out: Indisulam IC50 (log 10) (converted), U2AF1 WT): 16.2 µM | IC50 (H1770; NCI-H1770, read-out: Indisulam IC50, U2AF1 WT): 16.2 µM | IC50 (H1975; NCI-H1975, read-out: Indisulam IC50 (log 10) (converted), U2AF1 WT): 1.51 µM | IC50 (H1975; NCI-H1975, read-out: Indisulam IC50, U2AF1 WT): 1.51 µM | IC50 (H2106; [2]): 0.616 µM | IC50 (H2106; [3]): 0.616 µM | IC50 (H2126; NCI-H2126, read-out: Indisulam IC50 (log 10) (converted), U2AF1 WT): 20.5 µM | IC50 (H2126; NCI-H2126, read-out: Indisulam IC50, U2AF1 WT): 20.5 µM | IC50 (H2444; NCI-H2444, read-out: Indisulam IC50 (log 10) (converted), U2AF1 WT): 14.1 µM | IC50 (H2444; NCI-H2444, read-out: Indisulam IC50, U2AF1 WT): 14.1 µM | IC50 (H292; NCI-H292, read-out: Indisulam IC50 (log 10) (converted), U2AF1 WT): 1.12 µM | IC50 (H292; NCI-H292, read-out: Indisulam IC50, U2AF1 WT): 1.12 µM | IC50 (H522; NCI-H522, read-out: Indisulam IC50 (log 10) (converted), U2AF1 WT): 1.22 µM | IC50 (H522; NCI-H522, read-out: Indisulam IC50, U2AF1 WT): 1.22 µM | IC50 (H838; NCI-H838, read-out: Indisulam IC50 (log 10) (converted), U2AF1 WT): 1.03 µM | IC50 (H838; NCI-H838, read-out: Indisulam IC50, U2AF1 WT): 1.03 µM | IC50 (HCC15; [2]): 6.32 µM | IC50 (HCC15; [3]): 6.32 µM | IC50 (HCC2018; [2]): 6.48 µM | IC50 (HCC2018; [3]): 6.48 µM | IC50 (HCC2814; [2]): 8.72 µM | IC50 (HCC2814; [3]): 8.72 µM | IC50 (HCC366; [2]): 6.91 µM | IC50 (HCC366; [3]): 6.91 µM | IC50 (HCC4006; [2]): 0.735 µM | IC50 (HCC4006; [3]): 0.735 µM | IC50 (HOP62; HOP-62, read-out: Indisulam IC50 (log 10) (converted), U2AF1 WT): 6.08 µM | IC50 (HOP62; HOP-62, read-out: Indisulam IC50, U2AF1 WT): 6.08 µM | IC50 (WI38; WI-38, read-out: Indisulam IC50 (log 10) (converted), U2AF1 WT): 10 µM | IC50 (WI38; WI-38, read-out: Indisulam IC50, U2AF1 WT): 10 µM | amount of RBM39 protein (RBM39): reduced | RBM39 protein levels [1]: no effect | RBM39-AcGFP after indisulam treatment (RBM39-AcGFP): degraded

Reference: patent US20180140578A1, “METHODS AND COMPOSITIONS FOR THE DIAGNOSIS AND SELECTIVE TREATMENT OF CANCER” (Board of Regents of the University of Texas System, priority 2016, published 2018)
